We go through five molecules from patent publication US5624923A, “Tricyclic diazepine vasopressin antagonists and oxytocin antagonists” (priority 1995, dated 1997).

The test system of one assay is Vasopressin V1. The assay is described as follows: Vasopressin V1 Antagonist Activity in Conscious Rats (vasopressin vasopressor response). The following applies: for % Inhibition / Average Change: SHR. Further details: Average Change: unit not given here. It is filed as in vivo, rat. In short, it runs like this: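 Conscious rats are restrained supine, and under local 2% procaine a PE 10/20 cannula is passed through the ventral caudal tail artery into the lower abdominal aorta. The caudal vein is cannulated for intravenous dosing. Blood pressure is recorded with a Statham P23Db transducer, and vasopressin injections are repeated after compound dosing. Percent antagonism is calculated against the pre-drug vasopressor response taken as 100%.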

A further assay concerns the target T1, Rat Hepatic V1 Receptors (Rattus norvegicus, UniProt P30560).
T1 construct: Rat liver plasma membranes expressing the vasopressin V1 receptor subtypes; from tissue; host or cells: rat liver plasma membranes
The assay is described as follows: Binding Assay to Rat Hepatic V1 Receptors. The following applies: for IC50: rat liver membranes, read-out: V1 IC50.

For assay [1], the target named is T2, Rat Kidney Medullary V2 Receptors (Rattus norvegicus, UniProt Q00788).
T2 construct: Medullary tissues from rat kidneys are dissected out; from tissue; host or cells: rat kidney medulla membranes
Put plainly: Binding Assay to Rat Kidney Medullary V2 Receptors. The following applies: for IC50: rat kidney medulla membranes, read-out: V2 IC50. A digest of the protocol:
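Membranes were prepared from rat kidney medulla and stored in 50.0 mM Tris-HCl pH 7.4 with 0.2% BSA and 0.1 mM PMSF. Radioligand competition ran 120 min at bench temperature, with 1.0 μM unlabeled ligand defining nonspecific binding. Compounds were added in 50% DMSO; filtration, tritium scintillation counting, IC50 from competition analysis.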

A further assay has as its system Vasopressin V2. Put plainly: Vasopressin V2 Antagonist Activity in Conscious Hydrated Rats. The class given is in vivo, rat. The following applies: AVP 0.4 μg/kg i.p. In short, it runs like this:
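Four-hour urine output, osmolality and electrolytes (Na+, K+, Cl−) recorded in water-loaded rats (30 mL/kg deionized water orally) given AVP i.p. at 0.4 μg/kg. Test compounds were given orally at 0.1–100 mg/kg 1 h before AVP; 2–4 rats per compound.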

The mark [2] stands for this setting: 10 mg/kg i.v., VAS 0.01 i.u./kg, 30 min.
Setting [3] is: 10 mg/kg i.v., VAS 0.02 i.u./kg, 30 min.
The mark [4] stands for this setting: 20 mg/kg i.v., VAS 0.01 i.u./kg, 60 min.
Setting [5] is: 20 mg/kg i.v., VAS 0.01 i.u./kg, 90 min.
The mark [6] stands for this setting: 20 mg/kg i.v., VAS 0.01 i.u./kg, 120 min.
Where [7] appears, read: 20 mg/kg i.v., VAS 0.01 i.u./kg, 180 min.
Where [8] appears, read: 20 mg/kg i.v., VAS 0.01 i.u./kg, 240 min.
Where [9] appears, read: 20 mg/kg i.v., VAS 0.01 i.u./kg, 300 min.
The mark [10] stands for this setting: 20 mg/kg i.v., VAS 0.02 i.u./kg, 60 min.
Where [11] appears, read: 20 mg/kg i.v., VAS 0.02 i.u./kg, 90 min.
[12] abbreviates: 20 mg/kg i.v., VAS 0.02 i.u./kg, 120 min.
Setting [13] is: 20 mg/kg i.v., VAS 0.02 i.u./kg, 180 min.
Setting [14] is: 20 mg/kg i.v., VAS 0.02 i.u./kg, 240 min.
Where [15] appears, read: 20 mg/kg i.v., VAS 0.02 i.u./kg, 300 min.
Where [16] appears, read: 10 mg/kg i.v., VAS 0.01 i.u./kg, 60 min.
Where [17] appears, read: 10 mg/kg i.v., VAS 0.01 i.u./kg, 90 min.
The mark [18] stands for this setting: 10 mg/kg i.v., VAS 0.01 i.u./kg, 120 min.
Setting [19] is: 10 mg/kg i.v., VAS 0.01 i.u./kg, 180 min.
Where [20] appears, read: 10 mg/kg i.v., VAS 0.01 i.u./kg, 240 min.
Setting [21] is: 10 mg/kg i.v., VAS 0.01 i.u./kg, 300 min.
The mark [22] stands for this setting: 10 mg/kg i.v., VAS 0.02 i.u./kg, 60 min.
Setting [23] is: 10 mg/kg i.v., VAS 0.02 i.u./kg, 90 min.
The mark [24] stands for this setting: 10 mg/kg i.v., VAS 0.02 i.u./kg, 120 min.
[25] abbreviates: 10 mg/kg i.v., VAS 0.02 i.u./kg, 180 min.
Where [26] appears, read: 10 mg/kg i.v., VAS 0.02 i.u./kg, 240 min.
[27] abbreviates: 10 mg/kg i.v., VAS 0.02 i.u./kg, 300 min.

T2 sequence (Q00788 whole entry): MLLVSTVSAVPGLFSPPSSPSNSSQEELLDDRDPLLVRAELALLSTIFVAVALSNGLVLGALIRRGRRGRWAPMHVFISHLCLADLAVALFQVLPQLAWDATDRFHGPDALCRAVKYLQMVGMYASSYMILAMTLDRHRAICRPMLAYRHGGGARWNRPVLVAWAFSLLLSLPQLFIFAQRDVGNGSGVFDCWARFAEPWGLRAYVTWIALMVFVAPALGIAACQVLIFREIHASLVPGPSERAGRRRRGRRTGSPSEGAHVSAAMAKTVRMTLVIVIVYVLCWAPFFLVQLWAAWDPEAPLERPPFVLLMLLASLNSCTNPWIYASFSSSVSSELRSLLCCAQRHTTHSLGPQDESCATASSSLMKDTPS
T1 sequence (P30560 whole entry): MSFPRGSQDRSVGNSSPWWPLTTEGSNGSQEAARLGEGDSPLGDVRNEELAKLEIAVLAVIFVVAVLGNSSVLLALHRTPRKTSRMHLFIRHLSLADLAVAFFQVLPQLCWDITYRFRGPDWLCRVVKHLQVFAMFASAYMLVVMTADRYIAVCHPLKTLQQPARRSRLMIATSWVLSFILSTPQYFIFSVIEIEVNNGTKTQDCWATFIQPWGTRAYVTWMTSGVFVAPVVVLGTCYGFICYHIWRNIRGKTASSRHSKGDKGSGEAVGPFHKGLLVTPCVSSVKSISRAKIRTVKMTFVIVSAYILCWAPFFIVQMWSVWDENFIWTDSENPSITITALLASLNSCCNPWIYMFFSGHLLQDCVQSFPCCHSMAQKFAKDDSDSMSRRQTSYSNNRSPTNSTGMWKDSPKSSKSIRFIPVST

Consider `O=C(Nc1ccc(C(=O)N2Cc3cccn3Cc3ccccc32)cc1)c1sc2ccccc2c1Cl` [Example 82, N-[4-(5H-Pyrrolo[2,1-c][1,4]benzodiazepin-10(11H)-ylcarbonyl)phenyl]-3-chlorobenzo[b]thiophene-2-carboxamide], for which the “% Inhibition” value in the assay with Vasopressin V1 (setting [2]) is 24%; in the assay with Vasopressin V1 (setting [3]) it was -5%; in the assay on Vasopressin V1 (setting [4]), 67%; in the assay on Vasopressin V1 (setting [5]), 51%; with Vasopressin V1 (setting [6]), 65%; in the assay with Vasopressin V1 (setting [7]), 61%. Also, the “% Inhibition” value is recorded as 39% with Vasopressin V1 (setting [8]); 33% with Vasopressin V1 (setting [9]); 28% in the assay with Vasopressin V1 (setting [10]); 53% in the assay on Vasopressin V1 (setting [11]); 25% in the assay with Vasopressin V1 (setting [12]); 16% in the assay with Vasopressin V1 (setting [13]). The “% Inhibition” value in the assay on Vasopressin V1 (setting [14]) is 18%; with Vasopressin V1 (setting [15]), -3%. In addition, the “Average Change” value with Vasopressin V1 (setting [2]) was determined as 36; with Vasopressin V1 (setting [3]), 54; in the assay on Vasopressin V1 (setting [4]), 15.5; in the assay with Vasopressin V1 (setting [5]), 23.5; in the assay on Vasopressin V1 (setting [6]) it was 16.5; in the assay with Vasopressin V1 (setting [7]), 18.5. The “Average Change” value in the assay with Vasopressin V1 (setting [8]) turned out to be 29; in the assay with Vasopressin V1 (setting [9]), 32; with Vasopressin V1 (setting [10]) it was 37; in the assay on Vasopressin V1 (setting [11]) it was 24; with Vasopressin V1 (setting [12]), 38.5; in the assay on Vasopressin V1 (setting [13]) it was 43.5. Besides, the “Average Change” value with Vasopressin V1 (setting [14]) is 42; in the assay on Vasopressin V1 (setting [15]), 53. Also, the inhibition at 10 µM was found to be 23% at Rat Hepatic V1 Receptors (2 h, 10 μM, rat) and 71% in assay [1] (10 μM, rat). The Osmolality with Vasopressin V2 (20 mg/kg orally) was 1300 mOsm/kg. Also, the “Urine Volume” value in the assay on Vasopressin V2 (20 mg/kg orally) stood at 4.3 ml/4 hrs.
For the molecule `O=C(Nc1ccc(C(=O)N2Cc3cccn3Cc3ccccc32)cc1)c1ccccc1F` [Example 8, N-[4-(5H-pyrrolo[2,1-c][1,4]benzodiazepin10(11H)-ylcarbonyl)phenyl]-2-fluorobenzamide], the “% Inhibition” value in the assay with Vasopressin V1 (setting [2]) turned out to be 61%; in the assay on Vasopressin V1 (setting [16]), 61%; in the assay on Vasopressin V1 (setting [17]) it was 73%; in the assay on Vasopressin V1 (setting [18]) it was 69%; in the assay with Vasopressin V1 (setting [19]), 62%; in the assay on Vasopressin V1 (setting [20]) it was 59%. The “% Inhibition” value is reported as 51% in the assay on Vasopressin V1 (setting [21]); 54% with Vasopressin V1 (setting [3]); 58% in the assay on Vasopressin V1 (setting [22]); 66% with Vasopressin V1 (setting [23]); 70% in the assay with Vasopressin V1 (setting [24]); 46% in the assay with Vasopressin V1 (setting [25]). The “% Inhibition” value stood at 44% in the assay with Vasopressin V1 (setting [26]) and 46% in the assay on Vasopressin V1 (setting [27]). The “Average Change” value in the assay with Vasopressin V1 (setting [2]) stood at 14.5; in the assay on Vasopressin V1 (setting [16]), 14.5; in the assay on Vasopressin V1 (setting [17]), 10; in the assay on Vasopressin V1 (setting [18]) it was 11.5; with Vasopressin V1 (setting [19]), 14; in the assay with Vasopressin V1 (setting [20]), 15. Moreover, the “Average Change” value is given as 18 in the assay on Vasopressin V1 (setting [21]); 23.5 in the assay on Vasopressin V1 (setting [3]); 21.5 with Vasopressin V1 (setting [22]); 17.5 with Vasopressin V1 (setting [23]); 15.5 in the assay with Vasopressin V1 (setting [24]); 28 with Vasopressin V1 (setting [25]). In addition, the results for the “Average Change” value with Vasopressin V1 (setting [26]) and with Vasopressin V1 (setting [27]) were 29 and 28, respectively. In addition, the concentration for half-maximal inhibition (IC50) at Rat Hepatic V1 Receptors was determined as 56 nM; in assay [1] it was 35 nM. The Osmolality with Vasopressin V2 (10 mg/kg orally) is 1211 mOsm/kg; in the assay on Vasopressin V2 (30 mg/kg orally), 1010 mOsm/kg. Also, the “Urine Volume” value is given as 3.4 ml/4 hrs with Vasopressin V2 (10 mg/kg orally) and 9.1 ml/4 hrs with Vasopressin V2 (30 mg/kg orally).
In the case of `Cc1ccccc1NC(=O)c1ccc(C(=O)N2Cc3cccn3Cc3ccccc32)cc1` [Example 484, N-(2-Methylphenyl)-4-(5H-pyrrolo[2,1-c][1,4]-benzodiazepin-10(11H)-ylcarbonyl)benzamide], in the assay with Vasopressin V1 (10 mg/kg i.v.), the “Max. % Inhibition” value was 79% and the “Time (of max. % inhibition)” value was 300 min. Besides, in the assay with Vasopressin V1 (30 mg/kg p.o.), the “Max. % Inhibition” value is on record as 22% and the “Time (of max. % inhibition)” value turned out to be 180 min. Besides, the 50% inhibitory concentration (IC50) on Rat Hepatic V1 Receptors was 97 nM. Also, in assay [1], the IC50 worked out at 25 nM. In the assay with Vasopressin V2 (10 mg/kg orally), the Osmolality stood at 785 mOsm/kg and the “Urine Volume” value is recorded as 8 ml/4 hrs.
In the case of `Cc1c(F)cccc1C(=O)Nc1ccc(C(=O)N2Cc3cccn3Cc3ccccc32)cc1` [Example 466, N-[4-(5H-pyrrolo[2,1-c][1,4]benzodiazepin-10(11H)-ylcarbonyl)phenyl]-3-fluoro-2-methylbenzamide], in the assay with Vasopressin V1 (30 mg/kg i.v.), the “Max. % Inhibition” value came out at 94% and the “Time (of max. % inhibition)” value is 94 min. In addition, the IC50 at Rat Hepatic V1 Receptors stood at 26 nM. The IC50 in assay [1] was determined as 4 nM. In the assay on Vasopressin V2 (10 mg/kg orally), the Osmolality turned out to be 522 mOsm/kg and the “Urine Volume” value came to 14.1 ml/4 hrs.
`Cc1cc(C(=O)N2Cc3cccn3Cc3ccccc32)ccc1NC(=O)c1ccc(Cl)cc1Cl` [Example 99, N-[4-(5H-pyrrolo[2,1-c][1,4]-benzodiazepin-10(11H)-yl-carbonyl)-2-methylphenyl]-2,4-dichlorobenzamide]: the “Max. % Inhibition” value in the assay on Vasopressin V1 (10 mg/kg i.v.) is recorded as 76%. The “Time (of max. % inhibition)” value with Vasopressin V1 (10 mg/kg i.v.) was determined as 120 min. Moreover, the “% Inhibition” value with Vasopressin V1 (setting [2]) was determined as 74%; with Vasopressin V1 (setting [16]) it was 29%; with Vasopressin V1 (setting [17]), 47%; with Vasopressin V1 (setting [18]), 76%; in the assay with Vasopressin V1 (setting [19]), 68%; in the assay with Vasopressin V1 (setting [20]) it was 50%. Further, the “% Inhibition” value in the assay on Vasopressin V1 (setting [21]) turned out to be 44%; in the assay on Vasopressin V1 (setting [3]), 64%; in the assay with Vasopressin V1 (setting [22]) it was 72%; with Vasopressin V1 (setting [23]) it was 26%; with Vasopressin V1 (setting [24]), 53%; in the assay with Vasopressin V1 (setting [25]), 44%. Besides, the “% Inhibition” value in the assay on Vasopressin V1 (setting [26]) is recorded as 40%; with Vasopressin V1 (setting [27]), 38%. For the same molecule, the “Average Change” value came out at 9.5 in the assay on Vasopressin V1 (setting [2]); 25.5 in the assay with Vasopressin V1 (setting [16]); 19 with Vasopressin V1 (setting [17]); 8.5 in the assay on Vasopressin V1 (setting [18]); 11.5 with Vasopressin V1 (setting [19]); 18 with Vasopressin V1 (setting [20]). For the same molecule, the “Average Change” value is on record as 20 with Vasopressin V1 (setting [21]); 13 in the assay on Vasopressin V1 (setting [3]); 10 in the assay on Vasopressin V1 (setting [22]); 26.5 in the assay on Vasopressin V1 (setting [23]); 17 with Vasopressin V1 (setting [24]); 20 in the assay with Vasopressin V1 (setting [25]). The “Average Change” value in the assay on Vasopressin V1 (setting [26]) was 21.5; in the assay with Vasopressin V1 (setting [27]), 22.5. Moreover, the half-inhibitory concentration (IC50) at Rat Hepatic V1 Receptors is 27 nM; in assay [1], 10 nM. The molecule also returned an Osmolality in the assay with Vasopressin V2 (30 mg/kg orally) of 334 mOsm/kg. Further, in the assay on Vasopressin V2 (30 mg/kg orally), the “Urine Volume” value came to 15.2 ml/4 hrs.
